Test results from PubChem BioAssay (NCI).
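1) Cells in 96-well plates. 2) Compound, 48 h, 5 concentrations. 3) Linear interpolation between surrounding doses. 4) Unreached endpoint = highest concentration. Definition used: TGI = concentration required for complete inhibition of growth.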

Legend:
Assay in all cases: growth of human tumour cells (NCI), 48 h
[1] = tested on: NCI-H23 lung
[2] = tested on: MDA-N
[3] = tested on: SNB-75 CNS
[4] = tested on: TK-10 renal
[5] = tested on: MOLT-4 leukemia
[6] = tested on: ACHN renal
[7] = tested on: SNB-19 CNS
[8] = tested on: MCF7 breast
[9] = tested on: OVCAR-8 ovarian
[10] = tested on: NCI-H460 lung
[11] = tested on: T-47D breast
[12] = tested on: HCC-2998 colon
[13] = tested on: SF-539 CNS
[14] = tested on: NCI/ADR-RES ovarian
[15] = tested on: MDA-MB-435
[16] = tested on: HT29 colon
[17] = tested on: OVCAR-5 ovarian
[18] = tested on: M14 melanoma
[19] = tested on: NCI-H226 lung
[20] = tested on: SK-MEL-5 melanoma
[21] = tested on: A549 NSCLC
[22] = tested on: LOX IMVI melanoma
[23] = tested on: SK-MEL-28 melanoma
[24] = tested on: MDA-MB-231 breast
[25] = tested on: HL-60(TB) leukemia
[26] = tested on: UACC-62 melanoma
[27] = tested on: HS 578T breast
[28] = tested on: SW-620 colon
[29] = tested on: U251 CNS
[30] = tested on: SK-MEL-2 melanoma
[31] = tested on: PC-3 prostate
[32] = tested on: CCRF-CEM leukemia
[33] = tested on: HCT-116 colon
[34] = tested on: SF-295 CNS
[35] = tested on: UACC-257 melanoma
[36] = tested on: BT-549 breast
[37] = tested on: SR leukemia
[38] = tested on: HOP-92 NSCLC
[39] = tested on: DU-145 prostate
[40] = tested on: OVCAR-4 ovarian
[41] = tested on: EKVX NSCLC
[42] = tested on: SN12C renal
[43] = tested on: UO-31 renal
[44] = tested on: COLO 205 colon
[45] = tested on: RPMI-8226 leukemia
[46] = tested on: KM12 colon
[47] = tested on: MALME-3M melanoma
[48] = tested on: HCT-15 colon
[49] = tested on: 786-0 renal
[50] = tested on: SF-268 CNS
[51] = tested on: OVCAR-3 ovarian
[52] = tested on: IGROV1 ovarian
[53] = tested on: HOP-62 NSCLC
[54] = tested on: NCI-H522 lung
[55] = tested on: SK-OV-3 ovarian
[56] = tested on: K-562 leukemia
[57] = tested on: A498 renal
[58] = tested on: CAKI-1 renal

`COc1ccc(C(=O)N2CCN(c3ccc4[nH]c(=O)oc4c3)CC2)cc1` gave a TGI [1] of over 100 µM, a TGI [2] of over 100 µM and a TGI [3] of over 100 µM. For the same molecule, the TGI [4] was over 100 µM, the TGI [5] was over 100 µM and the TGI [6] was over 100 µM. It also gave a TGI [7] of over 100 µM, a TGI [8] of over 100 µM and a TGI [9] of over 100 µM. It also gave a TGI [10] of over 100 µM, a TGI [11] of over 100 µM and a TGI [12] of over 100 µM. For the same molecule, the TGI [13] was over 100 µM, the TGI [14] was over 100 µM and the TGI [15] was over 100 µM. For the same molecule, the TGI [16] was over 100 µM, the TGI [17] was over 100 µM and the TGI [18] was over 100 µM. For the same molecule, the TGI [19] was over 100 µM, the TGI [20] was over 100 µM and the TGI [21] was over 100 µM. The TGI [22] was over 100 µM, the TGI [23] was over 100 µM and the TGI [24] was over 100 µM. The TGI [25] was over 100 µM, the TGI [26] was over 100 µM and the TGI [27] was over 100 µM. The TGI [28] was over 100 µM, the TGI [29] was over 100 µM and the TGI [30] was over 100 µM. For the same molecule, the TGI [31] was over 100 µM, the TGI [32] was over 100 µM and the TGI [33] was over 100 µM. For the same molecule, the TGI [34] was over 100 µM, the TGI [35] was over 100 µM and the TGI [36] was over 100 µM. For the same molecule, the TGI [37] was over 100 µM, the TGI [38] was over 100 µM and the TGI [39] was over 100 µM. The TGI [40] was over 100 µM, the TGI [41] was over 100 µM and the TGI [42] was over 100 µM. The TGI [43] was over 100 µM, the TGI [44] was over 100 µM and the TGI [45] was over 100 µM. It also gave a TGI [46] of over 100 µM, a TGI [47] of over 100 µM and a TGI [48] of over 100 µM. For the same molecule, the TGI [49] was over 100 µM, the TGI [50] was over 100 µM and the TGI [51] was over 100 µM. The TGI [52] was over 100 µM, the TGI [53] was over 100 µM and the TGI [54] was over 100 µM. For the same molecule, the TGI [55] was over 100 µM.
`COc1cc(/C=C2\N=C(c3ccccc3)N(/N=C/c3cc4cc(C)ccc4nc3Cl)C2=O)cc(OC)c1OC` showed a TGI [2] of 48.6 µM, a TGI [56] of over 100 µM and a TGI [3] of 61.5 µM. It also gave a TGI [4] of over 100 µM, a TGI [5] of 51 µM and a TGI [6] of over 100 µM. It also gave a TGI [7] of over 100 µM, a TGI [8] of over 100 µM and a TGI [9] of over 100 µM. For the same molecule, the TGI [10] was over 100 µM, the TGI [11] was 63.3 µM and the TGI [12] was 45.4 µM. The TGI [13] was 41.8 µM, the TGI [14] was over 100 µM and the TGI [15] was 40.7 µM. The TGI [16] was over 100 µM, the TGI [17] was over 100 µM and the TGI [18] was over 100 µM. The TGI [57] was over 100 µM, the TGI [20] was over 100 µM and the TGI [21] was over 100 µM. For the same molecule, the TGI [22] was over 100 µM, the TGI [23] was over 100 µM and the TGI [24] was over 100 µM. The TGI [25] was 28.2 µM, the TGI [58] was over 100 µM and the TGI [26] was over 100 µM. It also gave a TGI [27] of 88.8 µM, a TGI [28] of over 100 µM and a TGI [29] of 51 µM. The TGI [30] was 48 µM, the TGI [31] was 54.7 µM and the TGI [33] was over 100 µM. For the same molecule, the TGI [34] was over 100 µM, the TGI [35] was over 100 µM and the TGI [36] was over 100 µM. The TGI [37] was 57.4 µM, the TGI [38] was over 100 µM and the TGI [39] was 80.6 µM. The TGI [40] was over 100 µM, the TGI [41] was over 100 µM and the TGI [42] was over 100 µM. For the same molecule, the TGI [43] was over 100 µM, the TGI [44] was 63.7 µM and the TGI [45] was 42.8 µM. For the same molecule, the TGI [46] was over 100 µM, the TGI [48] was over 100 µM and the TGI [49] was over 100 µM. The TGI [50] was over 100 µM, the TGI [51] was over 100 µM and the TGI [52] was over 100 µM. For the same molecule, the TGI [53] was over 100 µM and the TGI [55] was over 100 µM.
